Results from the CheMixHub viscosity set.

Experiment: xn = mol fraction of the nth substance listed

COCCOCCOC + CCOC(=O)CCC(=O)OCC
viscosity [mPa·s], 101.33 kPa
Settings	x1 = 0.1002	x1 = 0.2023	x1 = 0.3012	x1 = 0.4033	x1 = 0.5032	x1 = 0.6024	x1 = 0.7034	x1 = 0.801	x1 = 0.9025
298.15 K	2.198	2.009	1.843	1.681	1.535	1.412	1.296	1.187	1.077
303.15 K	1.951	1.792	1.65	1.513	1.386	1.283	1.184	1.086	0.994
308.15 K	1.737	1.599	1.476	1.355	1.251	1.163	1.082	0.997	0.92
313.15 K	1.559	1.438	1.33	1.229	1.139	1.061	0.989	0.919	0.852
318.15 K	1.406	1.299	1.206	1.115	1.034	0.969	0.908	0.849	0.792

N#CCCO + CC#N
298 K, 101 kPa
Settings	viscosity [mPa·s]
x1 = 0.1342	0.466
x1 = 0.2793	0.689
x1 = 0.4366	0.906
x1 = 0.6079	1.358
x1 = 0.7949	2.144

Oc1ccccc1 + c1ccncc1
viscosity [mPa·s], 101 kPa
Settings	293.15 K	303.15 K	313.15 K
x1 = 0.0707	1.109	0.94	0.828
x1 = 0.1391	1.321	1.106	0.965
x1 = 0.213	1.597	1.339	1.152
x1 = 0.2888	2.01	1.634	1.389
x1 = 0.349	2.411	1.963	1.631
x1 = 0.4283	3.215	2.515	2.042
x1 = 0.5063	4.37	3.245	2.56
x1 = 0.5971	5.945	4.29	3.245
x1 = 0.6675	7.48	5.17	3.8
x1 = 0.7481	9.07	6.04	4.305
x1 = 0.8284	10.04	6.625	4.59
x1 = 0.9114	10.72	6.915	4.705

C1N2CN3CN1CN(C2)C3 + [2H]O[2H]
viscosity [mPa·s], 101 kPa
Settings	x1 = 0.004002	x1 = 0.007971	x1 = 0.01158	x1 = 0.01549	x1 = 0.01969
293.15 K	1.217	1.252	1.311	1.396	1.515
298.15 K	1.106	1.141	1.189	1.258	1.35
300.15 K	1.007	1.036	1.077	1.135	1.219
305.15 K	0.92	0.962	1.002	1.049	1.108

CC=CC(=O)O + CC(C)=O
viscosity [mPa·s], 101 kPa
Settings	x1 = 0.0488	x1 = 0.1	x1 = 0.1504	x1 = 0.1994	x1 = 0.2534	x1 = 0.2705
298.15 K	0.3461	0.3887	0.4349	0.4858	0.5435	0.5686
303.15 K	0.3299	0.3718	0.4141	0.461	0.5149	0.5368
308.15 K	0.3157	0.3531	0.3935	0.4352	0.4883	0.5066
313.15 K	0.3017	0.3379	0.3756	0.4196	0.463	0.4869
323.15 K	0.2771	0.3079	0.342	0.3849	0.4184	0.438

ClC(Cl)C(Cl)Cl + O=S1(=O)CCCC1
viscosity [mPa·s], 100 kPa
Settings	x2 = 0.0224	x2 = 0.1377	x2 = 0.2568	x2 = 0.3746	x2 = 0.4803	x2 = 0.5855	x2 = 0.7134	x2 = 0.8418	x2 = 0.9751
303.15 K	1.674	2.8	3.962	5.052	5.983	6.858	7.865	8.855	9.835
308.15 K	1.537	2.519	3.525	4.469	5.292	6.043	6.927	7.779	8.631
313.15 K	1.417	2.285	3.173	4.004	4.72	5.396	6.171	6.937	7.691

COCCOCCOC + CCCCCCCCC
viscosity [mPa·s], 101.33 kPa
Settings	x1 = 0.0991	x1 = 0.2003	x1 = 0.3005	x1 = 0.3982	x1 = 0.5023	x1 = 0.5963	x1 = 0.6999	x1 = 0.7997	x1 = 0.897
298.15 K	0.642	0.64	0.665	0.691	0.712	0.747	0.794	0.836	0.898
308.15 K	0.559	0.56	0.579	0.6	0.618	0.647	0.685	0.718	0.768
318.15 K	0.49	0.49	0.507	0.523	0.538	0.561	0.591	0.62	0.662

CNc1ccccc1 + CCC(=O)O
308.15 K, 101.33 kPa
Settings	viscosity [mPa·s]
x2 = 0.1405	1.689
x2 = 0.2649	1.817
x2 = 0.3831	1.959
x2 = 0.4886	2.058
x2 = 0.5912	2.143
x2 = 0.6846	2.115
x2 = 0.7714	1.931
x2 = 0.8525	1.631
x2 = 0.8913	1.45
x2 = 0.9291	1.226
x2 = 0.9645	1.053

COCCOCCOC + CCCCOC(C)=O
viscosity [mPa·s], 101.33 kPa
Settings	x1 = 0.0863	x1 = 0.1754	x1 = 0.2733	x1 = 0.3672	x1 = 0.4639	x1 = 0.5609	x1 = 0.6688	x1 = 0.8022	x1 = 0.8835
298.15 K	0.706	0.734	0.764	0.791	0.822	0.852	0.884	0.924	0.948
303.15 K	0.659	0.684	0.712	0.736	0.764	0.791	0.82	0.856	0.878
308.15 K	0.616	0.639	0.664	0.686	0.714	0.737	0.768	0.796	0.816
313.15 K	0.578	0.599	0.622	0.641	0.665	0.69	0.712	0.742	0.759
318.15 K	0.542	0.562	0.583	0.601	0.622	0.642	0.665	0.692	0.709
